Measurements published in patent US4007276A, “Triazolo isoindole derivatives” (Gruppo Lepetit, S.p.A., priority 1973, dated 1977).
Values after ≈ are worked out from the molar mass of the structure shown.

Key:
[1] = system: female Sprague-Dawley rats; assay: anti-fertility activity in pregnant rats; assay type: in vivo, rat (Sprague-Dawley)
Protocol: Representative experiments for assessing anti-fertility activity are carried out with female Sprague-Dawley rats weighing 200-230 g. They were mated with proven fertile males. The presence of sperm in the vagina of these animals is evidence of mating and is also considered as being day one of pregnancy. Pregnancy is confirmed at the time of autopsy by the presence of fetuses or implantation sites in the uterus. Even when animals abort the fetuses, implantation scars remain as evidence that the animal had been pregnant.
[…] These animals were autopsied on day 16 of pregnancy and the uteri were examined for evidence of pregnancy and termination of pregnancy such as implantation sites, live or resorbing fetuses and hemorrage as well as abnormalities of the uterus, placenta or fetuses. A compound is considered to be active if there is a reduction of live fetuses in at least 60% of the treated animals and the presence of implantation sites proves the animals to have been pregnant.

[2] = system: female Syrian golden hamsters; assay: anti-fertility activity in pregnant hamsters; assay type: in vivo, hamster (Syrian golden); settings: Mesocricetus auratus, sc, 5 mg/kg s.c., day 4 through day 8, autopsy day 14 of pregnancy, read-out: treated animals in which the number of live fetuses was either eliminated or severely reduced
Protocol: The anti-fertility activity of these compounds in rats was also confirmed in other species including mice, hamsters, rabbits, dogs, monkeys and baboons. With hamsters, the same criteria and conditions are followed as for testing in rats, with the exception that the animals (female Syrian golden hamsters weighing 100 to 130 g) are treated on day 4 through day 8 with 5 mg/kg s.c. of the test compound and are autopsied on day 14 of pregnancy.

[3] = system: pain threshold of the rats; assay: analgesic activity, Randall and Selitto procedure, pain threshold; assay type: in vivo, rat; settings: 50 mg/kg i.p.
Protocol: The analgesic activity of representative compounds as hereinbefore described was assessed in rats by following essentially the procedure described by L. O. Randall and J. J. Selitto, Arch. Int. Pharmacodyn., 111, 409 (1957).

[4] = system: baboons; assay: anti-fertility test in baboons; assay type: in vivo, baboon
[5] = system: conditioned rats; assay: secondary conditioned avoidance response test (anti-anxiety); assay type: in vivo, rat
Protocol: The CNS depressant properties of compounds hereinbefore described were investigated according to the Irwin method and in particular the anti-anxiety effect was evaluated on the basis of the secondary conditioned avoidance response test. A specific anti-anxiety effect was evidenced by administering to conditioned rats doses of 15-60 mg/kg i.p. of representative said compounds of the invention.
Following Table II indicates the ratio of the rats which are deconditioned after administration of predetermined amounts of said representative compounds: […]

[6] = toxicity, LD50 i.p. in mice; settings: mouse, in vivo, ip
[7] = system: Mycobacterium tubercolosis H37 Rv; assay: minimal inhibitory concentration, bacterial growth; assay type: cell-based; settings: H37RV, read-out: M.I.C. (minimal inhibitory concentration)
Protocol: In evaluating the antimicrobial utility of representative compounds as hereinbefore described, the minimal concentration of substance inhibiting bacterial growth (M.I.C.=minimal inhibitory concentration) was determined.

[8] = system: carrageenin induced edema; assay: carrageenin induced edema of the rat hind paw (anti-inflammatory); assay type: in vivo; settings: rats
Protocol: The anti-inflammatory activity of some representative compounds of formula I as hereinbefore described was evidenced by means of the carrageenin tests in rats. This test is carried out in the hind paw of the rat which paw has been inflammed by injection of carrageenin according to the technique described by C.A. Winter and coworker, Proc. Soc. Exptl. Biol. Med. III, 554 (1962). In following Table I are reported the percent inhibition of the carrageenin induced edema at the dose level indicated for each compound.

In the case of `c1ccc2c(c1)Cn1nc(-c3ccc4c(c3)OCO4)nc1-2` [2-(3,4-Methylenedioxyphenyl)-5H-s-triazolo[5,1-a]isoindole], the “% Animals Aborting” value ([1]; 1 mg/kg/day s.c.) is reported as 0%, the “% Animals Aborting” value ([1]; 1.25 mg/kg/day s.c.) is reported as 25% and the “% Animals Aborting” value ([1]; 2.5 mg/kg/day s.c.) is reported as 66.7%. For the same compound, the “% Animals Aborting” value ([1]; 5 mg/kg/day s.c.) was 100% and the responders at 5 mg/kg [2] was ≥ 60%.
With `c1cncc(-c2nc3n(n2)Cc2ccccc2-3)c1` [2-(3-pyridyl)-5H-s-triazolo[5,1-aisoindole] the “increase of the pain threshold of the rats” value [3] was 70% and the toxic effect [3] was “without provoking any toxic effect”.
For `c1ccc(COc2cccc(-c3nc4n(n3)Cc3ccccc3-4)c2)cc1` [2-(m-Benzyloxyphenyl)-5H-s-triazolo[5,1-a]isoindole], the responders at 5 mg/kg [2] was ≥ 60%.
With `Clc1cccc(-c2nc3n(n2)Cc2ccccc2-3)c1` [2-(m-Chlorophenyl)-5H-s-triazolo[5,1-a]isoindole] the responders at 5 mg/kg [2] was ≥ 60%.
With `CN(C)c1cccc(-c2nc3n(n2)Cc2ccccc2-3)c1` [2-(m-Dimethylaminophenyl)-5H-s-triazolo[5,1-a]isoindole] the responders at 5 mg/kg [2] was ≥ 60%.
For `CCOc1cccc(-c2nc3n(n2)Cc2ccccc2-3)c1` [2-(m-Ethoxyphenyl)-5H-s-triazolo[5,1-a]isoindole], the “% Animals Aborting” value ([1]; 1 mg/kg/day s.c.) was 33.3%, the “% Animals Aborting” value ([1]; 1.25 mg/kg/day s.c.) was 62.5% and the “% Animals Aborting” value ([1]; 2.5 mg/kg/day s.c.) was 85.7%. For the same compound, the “% Animals Aborting” value ([1]; 5 mg/kg/day s.c.) was 100% and the responders at 5 mg/kg [2] was ≥ 60%.
With `Fc1cccc(-c2nc3n(n2)Cc2ccccc2-3)c1` [2-(m-Fluorophenyl)-5H-s-triazolo[5,1-a]isoindole] the responders at 5 mg/kg [2] was ≥ 60%.
With `Oc1cccc(-c2nc3n(n2)Cc2ccccc2-3)c1` [2-(m-Hydroxyphenyl)-5H-s-triazolo[5,1-a]isoindole] the responders at 5 mg/kg [2] was ≥ 60%.
With `COc1cccc(-c2nc3n(n2)Cc2ccccc2-3)c1` [2-(m-Methoxyphenyl)-5H-s-triazolo[5,1-a]isoindole] the “% Animals Aborting” value ([1]; 0.155 mg/kg/day s.c.) was 0%, the “% Animals Aborting” value ([1]; 0.31 mg/kg/day s.c.) was 0% and the “% Animals Aborting” value ([1]; 0.62 mg/kg/day s.c.) was 38.5%. The “% Animals Aborting” value ([1]; 1.25 mg/kg/day s.c.) was 70.8%, the “% Animals Aborting” value ([1]; 2.5 mg/kg/day s.c.) was 100% and the “% Animals Aborting” value ([1]; 5 mg/kg/day s.c.) was 100%. The responders at 5 mg/kg [2] was ≥ 60% and the induced abortion [4] was “induced abortion in every animal studied”.
In the case of `CCCOc1cccc(-c2nc3n(n2)Cc2ccccc2-3)c1` [2-(m-Propoxyphenyl)-5H-s-triazolo[5,1-a]isoindole], the “% Animals Aborting” value ([1]; 1 mg/kg/day s.c.) is reported as 20%, the “% Animals Aborting” value ([1]; 1.25 mg/kg/day s.c.) is reported as 60% and the “% Animals Aborting” value ([1]; 2.5 mg/kg/day s.c.) is reported as 77.8%. For the same compound, the “% Animals Aborting” value ([1]; 5 mg/kg/day s.c.) was 100% and the responders at 5 mg/kg [2] was ≥ 60%.
For `Cc1cccc(-c2nc3n(n2)Cc2ccccc2-3)c1` [2-(m-Tolyl)-5H-s-triazolo[5,1-a]isoindole], the responders at 5 mg/kg [2] was ≥ 60%.
In the case of `FC(F)(F)c1cccc(-c2nc3n(n2)Cc2ccccc2-3)c1` [2-(m-Trifluoromethylphenyl)-5H-s-triazolo[5,1-a]isoindole], the responders at 5 mg/kg [2] is reported as ≥ 60%.
In the case of `Clc1ccc(-c2nc3n(n2)Cc2ccccc2-3)cc1` [2-(p-Chlorophenyl)-5H-s-triazolo[5,1-a]isoindole], the responders at 5 mg/kg [2] is reported as ≥ 60%.
With `Fc1ccc(-c2nc3n(n2)Cc2ccccc2-3)cc1` [2-(p-Fluorophenyl)-5H-s-triazolo[5,1-a]isoindole] the responders at 5 mg/kg [2] was ≥ 60%.
In the case of `COc1ccc(-c2nc3n(n2)Cc2ccccc2-3)cc1` [2-(p-Methoxyphenyl)-5H-s-triazolo[5,1-a]isoindole], the responders at 5 mg/kg [2] is reported as ≥ 60%.
In the case of `Cc1ccc(-c2nc3n(n2)Cc2ccccc2-3)cc1` [2-(p-Tolyl)-5H-s-triazolo[5,1-a]isoindole], the responders at 5 mg/kg [2] is reported as ≥ 60%.
With `Nc1nc2n(n1)Cc1ccccc1-2` [2-Amino-5H-s-triazolo[5,1-a]isoindole] the Deconditioned / treated ([5]; 30 mg/kg i.p.) was 8/10 and the LD50 [6] was 600 mg/kg.
With `Cc1nc2n(n1)Cc1ccccc1-2` [2-Methyl-5H-s-triazolo[5,1-a]isoindole] the Deconditioned / treated ([5]; 15 mg/kg i.p.) was 6/10, the Deconditioned / treated ([5]; 30 mg/kg i.p.) was 7/10 and the LD50 [6] was > 400 mg/kg.
For `c1ccc(-c2nc3n(n2)Cc2ccccc2-3)cc1` [2-Phenyl-5H-s-triazolo[5,1-a]isoindole], the “% Animals Aborting” value ([1]; 1.25 mg/kg/day s.c.) was 20%, the “% Animals Aborting” value ([1]; 2.5 mg/kg/day s.c.) was 80% and the responders at 5 mg/kg [2] was ≥ 60%.
For `CCOC(=O)NC(=S)Nc1nc2n(n1)Cc1ccccc1-2` [2-carbethoxythioureido-5H-s-triazolo[5,1-a]isoindole], the MIC [7] was 5 µg/mL (≈ 16.5 µM).
For `COc1cccc(-c2nc3n(n2)Cc2cc(OC)c(OC)cc2-3)c1` [7,8-Dimethoxy-2-(m-methoxyphenyl)-5H-s-triazolo[5,1-a]isoindole], the responders at 5 mg/kg [2] was ≥ 60%.
In the case of `COc1cccc(-c2nc3n(n2)Cc2cc(Cl)ccc2-3)c1` [7-Chloro-2-(m-methoxyphenyl)-5H-s-triazolo[5,1-a]isoindole], the responders at 5 mg/kg [2] is reported as ≥ 60%.
In the case of `Clc1ccc2c(c1)Cn1nc(-c3ccccc3)nc1-2` [7-Chloro-2-phenyl-5H-s-triazolo[5,1-a]isoindole], the responders at 5 mg/kg [2] is reported as ≥ 60%.
In the case of `COc1cccc(-c2nc3n(n2)Cc2cc(OC)ccc2-3)c1` [7-Methoxy-2-(m-methoxyphenyl)-5H-s-triazolo[5,1-a]isoindole], the responders at 5 mg/kg [2] is reported as ≥ 60%.
With `COc1cccc(-c2nc3n(n2)Cc2ccc(Cl)cc2-3)c1` [8-Chloro-2-(m-methoxyphenyl)-5H-s-triazolo[5,1-a]isoindole] the responders at 5 mg/kg [2] was ≥ 60%.
With `Clc1ccc2c(c1)-c1nc(-c3ccccc3)nn1C2` [8-Chloro-2-phenyl-5H-s-triazolo[5,1-a]isoindole] the responders at 5 mg/kg [2] was ≥ 60%.
For `COc1cccc(-c2nc3n(n2)Cc2ccc(OC)cc2-3)c1` [8-Methoxy-2-(m-methoxyphenyl)-5H-s-triazolo[5,1-a]isoindole], the “% Animals Aborting” value ([1]; 2.5 mg/kg/day s.c.) was 57.1%, the “% Animals Aborting” value ([1]; 5 mg/kg/day s.c.) was 100% and the responders at 5 mg/kg [2] was ≥ 60%.
With `COc1ccc2c(c1)-c1nc(-c3ccccc3)nn1C2` [8-Methoxy-2-phenyl-5H-s-triazolo[5,1-a]isoindole] the responders at 5 mg/kg [2] was ≥ 60%.
For `CCCCc1nc2n(n1)Cc1ccccc1-2` [a, 2-n-butyl-5H-s-triazolo[5,1-a]isoindole], the “Per Cent Inhibition of the Edema” value ([8]; 100 mg/Kg p.o.) was 28 Per Cent.
For `CC(=O)Nc1nc2n(n1)Cc1ccccc1-2` [c, 2-acetamido-5H-s-triazolo[5,1-a]isoindole], the “Per Cent Inhibition of the Edema” value ([8]; 50 mg/Kg p.o.) was 35 Per Cent and the “Per Cent Inhibition of the Edema” value ([8]; 100 mg/Kg p.o.) was 54 Per Cent.
For `CC(=O)N(C(C)=O)c1nc2n(n1)Cc1ccccc1-2` [d, 2-diacetylamino-5H-s-triazolo[5,1-a]isoindole], the “Per Cent Inhibition of the Edema” value ([8]; 50 mg/Kg p.o.) was 34 Per Cent and the “Per Cent Inhibition of the Edema” value ([8]; 100 mg/Kg p.o.) was 53 Per Cent.
For `NC(=O)Nc1nc2n(n1)Cc1ccccc1-2` [e, 2-ureido-5H-s-triazolo[5,1-a]isoindole], the “Per Cent Inhibition of the Edema” value ([8]; 100 mg/Kg p.o.) was 29 Per Cent.
For `O=C(Nc1nc2n(n1)Cc1ccccc1-2)c1ccccc1` [f, 2-benzoylamino-5H-s-triazolo[5,1-a]isoindole], the “Per Cent Inhibition of the Edema” value ([8]; 100 mg/Kg p.o.) was 28 Per Cent.
In the case of `Sc1nc2n(n1)Cc1ccccc1-2` [g, 2-sulfhydryl-5H-s-triazolo[5,1-a]isoindole], the “Per Cent Inhibition of the Edema” value ([8]; 50 mg/Kg p.o.) is reported as 39 Per Cent and the “Per Cent Inhibition of the Edema” value ([8]; 100 mg/Kg p.o.) is reported as 49 Per Cent.
